According to patent US20150174059A1, “ORAL CARE” (University of Pretoria, priority 2012, published 2015):
Structures can show the parent of a compound that is named as a salt. Where two headings read alike, the source gives them in different places. Marks after values point to notes of the source that are not given here. Numbered stars: 1 amine (or outer) side, 2 acyl side, 3 side chain; on linkers, the order of the positions; unused ones are H or OH. Bridge positions count the residues as written; N and C are the ends. Square brackets hold non-standard residues; d marks the D form. Peptide text beside a SMILES is read from it. I, II: the chains in the order shown. Actinocin(9to1) = Cc1c2oc3c(C)ccc(C(=O)[*:1])c3nc-2c(C(=O)[*:2])c(N)c1=O; NMeV = CN[C@H](C(=O)O)C(C)C; Sar = CNCC(=O)O

Key:
Bacillus subtilis = details: Aurentiacin A isolated from Myrica serrate; cited from earlier work
HEp-2 cells = experiment: Cytotoxicity, XTT method, HEp-2 cells; assay type: cell-based; details: for CC50: Homo sapiens, 72 h, read-out: 50% inhibition of cell growth IC50 + S.D.
Procedure: (§1) Microtitre plates with Vero and HEp-2 cells (Highveld Biological, Gauteng) were used for testing the four best ethanol extracts for cytotoxicity following the method of Basson (2005). Cytotoxicity was measured by the XTT (Sodium 3′-[1-(phenyl amino-carbonyl)-3,4-tetrazolim]-bis-[4 methoxy-6-nitro]benzene sulfonic acid hydrate) method using the cell proliferation kit II (Roche Diagnostics GmbH). A hundred microliters of Vero and HEp-2 cells (1×10^5 ml) were seeded onto micro-plates and incubated for 24 hrs to allow the cells to attach to the bottom of the plate. Dilution series were made of the extracts and the various concentrations (400-3.1 μg/ml) were added to the micro-plate and incubated for 72 hours. The XTT reagents were added to a final concentration of 0.3 mg/ml and the cells were incubated for one to two hours. The positive drug controls Doxorubicin HCl (Sigma-Aldrich, South Africa) and Actinomycin D (Sigma-Aldrich, South Africa), at concentration ranges of 0.78-0.01 μg/ml, were included in the assay. After incubation the absorbance of the colour was spectrophotometrically quantified using an enzyme-linked immunosorbent assay (ELISA) plate reader (BIO-TEK Power-Wave XS, Weltevreden Park, South Africa), which measured the optical density at 490 nm with a reference wavelength of 690 nm. The assay was carried out in triplicate.

Cladosprium cucumerinum = details: Aurentiacin A isolated from Myrica serrate; cited from earlier work
[1] = tested on: Actinomyces israelii (ATCC 10049); experiment: Microdilution MIC/MBC against Actinomyces israelii; assay type: cell-based; details: for MBC / MIC: ATCC10049
Procedure: (§2) The microorganisms used in this study included Actinomyces israelii (ATCC 10049), Prevotella intermedia (ATCC 25611), Streptococcus mutans (ATCC 25175), Candia albicans (ATCC 10231) and a strain of Candida albicans resistant to polyenes and azoles (1051604). The bacteria were grown on Casein-peptone Soymeal-peptone Agar medium (CASO) (Merck Chemicals (Pty) Ltd Wadeville, South Africa) under anaerobic conditions in an anaerobic jar with Anaerocult® A (Merck KGaA Darmstadt, Germany), at 37° C. for 72 hours. Actinomyces israelii and S. mutans had CASO agar enriched with 1% sucrose (Merck Chemicals (Pty) Ltd Wadeville, South Africa). The drug susceptible and drug resistant strains of C. albicans were grown on Sabouraud Dextrose 4% Agar (SDA) (Merck Chemicals (Pty) Ltd Wadeville, South Africa), at 37° C. for 72 hours. Sub-culturing was done every second week. Inocula were prepared by suspending bacterial test organisms in their respective broths until turbidity was compatible with McFarland Standard 1 (Merck Chemicals (Pty) Ltd Wadeville, South Africa). Yeast test organisms were suspended in sterile distilled water until turbidity was compatible with McFarland Standard 1 (McFarland, 1907).
(§3) The microdilution technique using 96-well micro-plates, as described by Eloff (1998) was used to obtain the MIC and MBC values of the crude extracts against the microorganisms under study. The extracts, dissolved in 10% dimethyl sulphoxide (DMSO) (Merck Chemicals (Pty) Ltd), were serially diluted in broth (enriched for A. israelii and S. mutans) for the bacteria and sterile water for the Candida species; in the 96-well plate adding 48 hour old microorganisms grown at 37° C. The final concentration of extracts ranged from 12.5-0.10 mg/ml and the positive control, 5% chlorhexidine gluconate (CHX) (Dental Warehouse, Sandton, South Africa), ranged from 12.5-3.8×10^−4 mg/ml. Amphotericin B (Davis Diagnostics, Gauteng) an established antifungal drug, ranging from 0.2 mg/ml to 1.5×10^−3 mg/ml, was included for the Candida assays. […] Actinomyces israelii and S. mutans were incubated at 37° C., under anaerobic conditions, for 24 hours; P. intermedia was incubated at 37° C., under anaerobic conditions, for 48 hours; and C. albicans was incubated at 37° C. with p-iodonitrotetrazolium violet (INT) (Sigma-Aldrich, South Africa) already added, under moist aerobic conditions, for 24 hours.
(§4) To indicate bacterial growth, 50 μl of (0.2 mg/ml) INT, was added to micro-plate wells and incubated at 37° C., under anaerobic conditions, for 20-60 minutes until a red colour developed. The MIC was defined as the lowest concentration that inhibited the colour change of INT. […] These suspensions were reincubated at 37° C. for 28 hours (48 hours for P. intermedia), under anaerobic conditions. The MBC was determined as the lowest concentration of extract which inhibited 100% growth of microorganisms (Cohen et al., 1998).

E. coli = details: Aurentiacin A isolated from Myrica serrate; cited from earlier work
DPPH antioxidant assay = assay type: biochemical; details: single component
Procedure: DPPH (2,2-diphenyl-1-picrylhydrazyl hydrate) is a stable free radical with an unpaired valence electron at a nitrogen atom forming a bridge. The free radical can initiate a chain reaction which causes the removal of an electron from another molecule to complete its own orbital. This free valence electron forms the basis of the DPPH assay as samples are tested to determine the scavenging capability of this DPPH radical.
A modified antioxidant assay was used (du Toit et al., 2001). A 2% stock solution of M. piperita and M. alternifolia, a 2 mg/ml stock solution of ascorbic acid (vitamin C) (Sigma-Aldrich (Pty) Ltd, Aston Manor, South Africa) and H. natalensis, a 1 mg/ml stock solution of Quercetin, a 500 μg/ml stock solution of TEAVIGO™ and a synergistic compilation of H. natalensis (3.125 mg/ml), M. alternifolia (0.05% v/v), M. piperita (0.05% v/v) and TEAVIGO™ (2.5 mg/ml) were prepared.
In a 96 well ELISA plate, 20 μl of each sample was added to 200 μl dH2O (except for Quercetin which was added to 200 μl EtOH), serial dilutions were done. After which […] DPPH (Sigma-Aldrich (Pty) Ltd, Aston Manor, South Africa) dissolved in ethanol (40 μg/ml) were added to all wells. All samples were prepared in triplicate. […] The absorbance was measured in an ELISA plate reader at 515 nm (du Toit et al., 2001). […]

in vitro = assay type: cell-based; details: African green monkey
Procedure: as §1

[2] = tested on: Candida albicans resistant to polyenes and azoles (1051604); experiment: Microdilution MIC/MBC against polyene and azole resistant C. albicans; assay type: cell-based; details: Yeast
Procedure: as §2, §3
as §4, with “The MBC was determined as the lowest concentration of extract which inhibited 100% growth of microorganisms (Cohen et al., 1998).” left out

[3] = tested on: Streptococcus mutans (ATCC 25175); experiment: Microdilution MIC/MBC against Streptococcus mutans; assay type: cell-based; details: ATCC25175, Gram +ve
Procedure: as §2
(§5) The microdilution technique using 96-well micro-plates, as described by Eloff (1998) was used to obtain the MIC and MBC values of the crude extracts against the microorganisms under study. […]

[4] = tested on: Prevotella intermedia (ATCC 25611); experiment: Microdilution MIC/MBC against Prevotella intermedia; assay type: cell-based; details: ATCC25611, Gram -ve
Procedure: as §2, §5

[5] = tested on: Candida albicans (ATCC 10231); experiment: Microdilution MIC/MBC against Candida albicans; assay type: cell-based
Procedure: as §2
The microdilution technique using 96-well micro-plates, as described by Eloff (1998) was used to obtain the MIC and MBC values of the crude extracts against the microorganisms under study. The extracts, dissolved in 10% dimethyl sulphoxide (DMSO) (Merck Chemicals (Pty) Ltd), were serially diluted in broth (enriched for A. israelii and S. mutans) for the bacteria and sterile water for the Candida species; in the 96-well plate adding 48 hour old microorganisms grown at 37° C. The final concentration of extracts ranged from 12.5-0.10 mg/ml and the positive control, 5% chlorhexidine gluconate (CHX) (Dental Warehouse, Sandton, South Africa), ranged from 12.5-3.8×10^−4 mg/ml. Amphotericin B (Davis Diagnostics, Gauteng) an established antifungal drug, ranging from 0.2 mg/ml to 1.5×10^−3 mg/ml, was included for the Candida assays. […]

[6] = against Actinomyces israelii, NA = Not active, read-out: MBC of the isolated compounds
[7] = against Actinomyces israelii, read-out: MIC of the isolated compounds

COc1c(C)c(O)cc(O)c1C(=O)/C=C/c1ccccc1 [Aurentiacin A (1), 2′-Me ether derivative of 2′,4′,6′-trihydroxy-3′-methylchalcone]
growth inhibition (Bacillus subtilis): inhibits the growth | CC50 (HEp-2 cells): 6.36 ± 5.09 µg/mL | growth inhibition (Cladosprium cucumerinum): inhibits the growth | MBC [1, 6]: 62.5 µg/mL | MIC [1, 7]: 62.5 µg/mL | growth inhibition (E. coli): inhibits the growth

O=C1O[C@H]([C@@H](O)CO)C(O)=C1O [Vitamin C, ascorbic acid]
IC50 ± SD, 50% of DPPH that is inhibited (DPPH antioxidant assay): 1.98 ± 0.006 µg/mL

COc1cccc2c1C(=O)c1c(O)c3c(c(O)c1C2=O)C[C@@](O)(C(=O)CO)C[C@@H]3O[C@H]1C[C@H](N)[C@H](O)[C@H](C)O1 [Doxorubicin, Doxorubicin HCl]
IC50 at 72 h (in vitro): 0.06 µg/mL

[H]/N=C(\N/C(=N/[H])NCCCCCCNC(=N)NC(=N)Nc1ccc(Cl)cc1)Nc1ccc(Cl)cc1 [Chlorhexidine, chlorhexidine gluconate]
MBC ([2]; Candida albicans): 293 µg/mL | MIC ([2]; Candida albicans): 260 µg/mL | MBC [3]: 415 µg/mL | MIC [3]: 61 µg/mL | MBC [4]: 1040 µg/mL | MIC [4]: 260 µg/mL | MBC ([1]; Gram +ve, Actinomyces israelii, read-out: MBC, A.i): 39 µg/mL | MIC ([1]; Gram +ve, Actinomyces israelii, read-out: MIC, A.i): 33 µg/mL | MBC [1, 6]: 24 µg/mL | MIC [1, 7]: 24 µg/mL | MBC ([1]; Actinomyces israelii, fractions of the ethanolic extract, against A. israelii, Na = Not active, read-out: Average minimum bactericidal concentration (MBC) of the fractions): 48.8 µg/mL | MIC ([1]; Actinomyces israelii, fractions of the ethanolic extract, against A. israelii, read-out: Average minimum inhibitory concentration (MIC) of the fractions): 18.3 µg/mL | MBC ([5]; ATCC10231, Yeast): 293 µg/mL | MIC ([5]; ATCC10231, Yeast): 352 µg/mL

Oc1cc(O)c2c(c1)OC(c1ccccc1)C(O)C2 (stereo not drawn) [3,5,7-trihydroxyflavan (5), 3,5,7-Trihydroxyflavan]
CC50 (HEp-2 cells): > 200 µg/mL | MIC [1, 7]: > 1000 µg/mL | MIC of the isolated compounds ([1]; against Actinomyces israelii): >1 mg/mL

Cardamomin [Cardamomin (2)]
50% inhibition of cell growth IC50 + S.D. (HEp-2 cells): 52.12 ± 9.41 µg/mL | MIC of the isolated compounds ([1]; against Actinomyces israelii): >1 mg/mL

O=c1c(O)c(-c2ccc(O)c(O)c2)oc2cc(O)cc(O)c12 [Quercetin (4), 3,3′,4′,5,7-pentahydroxyflavone]
IC50 ± SD, 50% of DPPH that is inhibited (DPPH antioxidant assay): 0.415 ± 0.01095 µg/mL | CC50 (HEp-2 cells): 187 ± 42.6 µg/mL | MBC [1, 6]: 1000 µg/mL | MIC [1, 7]: 1000 µg/mL

C[C@@H]1[C@H](O)[C@@H](C)/C=C/C=C/C=C/C=C/C=C/C=C/C=C/[C@H](O[C@@H]2O[C@H](C)[C@@H](O)[C@H](N)[C@@H]2O)C[C@@H]2O[C@](O)(C[C@@H](O)C[C@@H](O)[C@H](O)CC[C@@H](O)C[C@@H](O)CC(=O)O[C@H]1C)C[C@H](O)[C@H]2C(=O)O [Amphotericin B]
MBC, C.a (res) [2]: 0.013^c mg/ml | MIC, C.a (res) [2]: 0.013^c mg/ml | MIC, C.a ([5]; Yeast): >0.2^c mg/ml

Cc1c2oc3c(C)ccc(C(=O)N[C@@H]4C(=O)N[C@H](C(C)C)C(=O)N5CCC[C@H]5C(=O)N(C)CC(=O)N(C)[C@@H](C(C)C)C(=O)O[C@@H]4C)c3nc-2c(C(=O)N[C@@H]2C(=O)N[C@H](C(C)C)C(=O)N3CCC[C@H]3C(=O)N(C)CC(=O)N(C)[C@@H](C(C)C)C(=O)O[C@@H]2C)c(N)c1=O [Actinomycin D] (I: T[dV]P[Sar][NMeV] / II: T[dV]P[Sar][NMeV]; ester I:1-I:C, II:1-II:C; linker I:N-II:N via Actinocin(9to1))
50% inhibition of cell growth IC50 + S.D. (HEp-2 cells): 9.6 × 10^−3 ± 0.0003^c μg/ml | Cytotoxicity IC50, HEp-2 (HEp-2 cells; XTT, 72 hours): 8.5 ng/mL
